Experimental data from PubChem BioAssay (NCI).
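These data come from cells grown in 96-well plates and exposed to compound for 48 hours at five concentrations. TGI marks complete inhibition of growth.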

Tests used:
Assay in all cases: NCI anticancer screen, dose series, 48 h
[1] = system: OVCAR-5 ovarian
[2] = system: UACC-257 melanoma
[3] = system: CAKI-1 renal
[4] = system: A549 NSCLC
[5] = system: RXF 393 renal
[6] = system: NCI-H23 lung
[7] = system: MDA-MB-435
[8] = system: T-47D breast
[9] = system: HCT-15 colon
[10] = system: HT29 colon
[11] = system: SK-MEL-2 melanoma
[12] = system: HL-60(TB) leukemia
[13] = system: SK-OV-3 ovarian
[14] = system: SNB-19 CNS
[15] = system: SK-MEL-28 melanoma
[16] = system: SR leukemia
[17] = system: MOLT-4 leukemia
[18] = system: ACHN renal
[19] = system: TK-10 renal
[20] = system: HOP-62 NSCLC
[21] = system: OVCAR-4 ovarian
[22] = system: HOP-92 NSCLC
[23] = system: OVCAR-3 ovarian
[24] = system: DU-145 prostate
[25] = system: NCI-H226 lung
[26] = system: SF-268 CNS
[27] = system: RPMI-8226 leukemia
[28] = system: HCT-116 colon
[29] = system: K-562 leukemia
[30] = system: PC-3 prostate
[31] = system: NCI/ADR-RES ovarian
[32] = system: U251 CNS
[33] = system: SNB-75 CNS
[34] = system: MALME-3M melanoma
[35] = system: SK-MEL-5 melanoma
[36] = system: HCC-2998 colon
[37] = system: CCRF-CEM leukemia
[38] = system: NCI-H460 lung
[39] = system: MDA-MB-231 breast
[40] = system: SN12C renal
[41] = system: SF-295 CNS
[42] = system: OVCAR-8 ovarian
[43] = system: UO-31 renal
[44] = system: COLO 205 colon
[45] = system: M14 melanoma
[46] = system: EKVX NSCLC
[47] = system: MDA-N
[48] = system: UACC-62 melanoma
[49] = system: SF-539 CNS
[50] = system: SW-620 colon
[51] = system: 786-0 renal
[52] = system: MCF7 breast
[53] = system: IGROV1 ovarian
[54] = system: KM12 colon
[55] = system: LOX IMVI melanoma
[56] = system: HS 578T breast
[57] = system: A498 renal
[58] = system: NCI-H522 lung

Nc1nc2c(ncn2C2C=CC(COS(N)(=O)=O)C2)c(=O)[nH]1 (configuration not stated)
TGI [1]: > 100 µM | TGI [2]: > 100 µM | TGI [3]: > 100 µM | TGI [4]: > 100 µM | TGI [5]: > 100 µM | TGI [6]: > 100 µM | TGI [7]: > 100 µM | TGI [8]: > 100 µM | TGI [9]: > 100 µM | TGI [10]: > 100 µM | TGI [11]: > 100 µM | TGI [12]: > 100 µM | TGI [13]: > 100 µM | TGI [14]: > 100 µM | TGI [15]: > 100 µM | TGI [16]: > 100 µM | TGI [17]: > 100 µM | TGI [18]: > 100 µM | TGI [19]: > 100 µM | TGI [20]: > 100 µM | TGI [21]: > 100 µM | TGI [22]: > 100 µM | TGI [23]: > 100 µM | TGI [24]: > 100 µM | TGI [25]: > 100 µM | TGI [26]: > 100 µM | TGI [27]: > 100 µM | TGI [28]: > 100 µM | TGI [29]: > 100 µM | TGI [30]: > 100 µM | TGI [31]: > 100 µM | TGI [32]: > 100 µM | TGI [33]: > 100 µM | TGI [34]: > 100 µM | TGI [35]: > 100 µM | TGI [36]: > 100 µM | TGI [37]: > 100 µM | TGI [38]: > 100 µM | TGI [39]: > 100 µM | TGI [40]: > 100 µM | TGI [41]: > 100 µM | TGI [42]: > 100 µM | TGI [43]: > 100 µM | TGI [44]: > 100 µM | TGI [45]: > 100 µM | TGI [46]: > 100 µM | TGI [47]: > 100 µM | TGI [48]: > 100 µM | TGI [49]: > 100 µM | TGI [50]: > 100 µM | TGI [51]: > 100 µM | TGI [52]: > 100 µM | TGI [53]: > 100 µM | TGI [54]: > 100 µM | TGI [55]: > 100 µM | TGI [56]: > 100 µM

COc1ccc(C=C2C(=O)NC(=S)NC2=O)c2ccccc12
TGI [1]: > 100 µM | TGI [2]: 41.5 µM | TGI [3]: > 100 µM | TGI [5]: 51.1 µM | TGI [6]: > 100 µM | TGI [7]: > 100 µM | TGI [8]: > 100 µM | TGI [9]: > 100 µM | TGI [10]: 77.3 µM | TGI [11]: 66.5 µM | TGI [12]: 52 µM | TGI [13]: > 100 µM | TGI [15]: > 100 µM | TGI [16]: 87.1 µM | TGI [17]: > 100 µM | TGI [18]: > 100 µM | TGI [19]: 58.2 µM | TGI [20]: > 100 µM | TGI [21]: > 100 µM | TGI [22]: > 100 µM | TGI [23]: 75.7 µM | TGI [24]: 64.7 µM | TGI [25]: 0.7 µM | TGI [26]: > 100 µM | TGI [57]: 0.479 µM | TGI [27]: > 100 µM | TGI [28]: > 100 µM | TGI [29]: > 100 µM | TGI [30]: 83.3 µM | TGI [31]: > 100 µM | TGI [32]: 83.3 µM | TGI [35]: > 100 µM | TGI [36]: > 100 µM | TGI [37]: > 100 µM | TGI [38]: > 100 µM | TGI [39]: > 100 µM | TGI [41]: > 100 µM | TGI [42]: > 100 µM | TGI [43]: > 100 µM | TGI [45]: > 100 µM | TGI [46]: > 100 µM | TGI [47]: 40.6 µM | TGI [49]: 57.7 µM | TGI [50]: > 100 µM | TGI [58]: > 100 µM | TGI [51]: > 100 µM | TGI [52]: > 100 µM | TGI [53]: > 100 µM | TGI [54]: > 100 µM | TGI [55]: > 100 µM | TGI [56]: 60.9 µM
